From article PMC7139549, “TLD1433 Photosensitizer Inhibits Conjunctival Melanoma Cells in Zebrafish Ectopic and Orthotopic Tumour Models” (Cancers, 2020)

Columns and labels:
[1] = test system: CRMM2 cells injected into the Duct of Cuvier of zebrafish embryos; test: Zebrafish ectopic CM tumour model, CRMM2; type: in vivo, Zebrafish (Danio rerio); settings: for PI (Fluorescence Intensity) / PI (Tumour Area) / Relative Tumour Burden as Measured by Fluorescence Intensity / Tumour Area: CRMM2, Ectopic Model; for PI (Fluorescence Intensity) / PI (Tumour Area): 0 vs 114 J.cm^−2
Method: (§1) The zebrafish ectopic conjunctival melanoma tumour model has been described previously. In this model, around 200 fluorescent CM cells are injected into the Duct of Cuvier at 2 dpf, and then disseminate through the blood circulation and grow in the head and tail. To establish the orthotopic tumour model, around 100 red, (td)Tomato fluorescent CRMM1 or CRMM2 cells were injected RO at 2 dpf into tg(Fli:GFP/Casper), endothelial reporter transgenic zebrafish with green fluorescent vasculature and examined by fluorescent microscopy at day 1 and 4 after engraftment (Figure 6A). Tumour expansion at the injection site was measured as fluorescence intensity and tumour area.
(§2) For cancer cell injection, two days post-fertilization (dpf), dechorionated zebrafish embryos were anaesthetized with 0.003% tricaine (Sigma) and plated on a 10 cm Petri dish covered with 1.5% of solidified agarose. CRMM1 and CRMM2 cells were suspended in PBS containing 2% polyvinylpyrrolidone (PVP; Sigma-Aldrich) with a concentration of 50,000 cells/µL and loaded into borosilicate glass capillary needles (1 mm O.D. × 0.78 mm I.D.; Harvard Apparatus). In the ectopic model, 200 (td)Tomato fluorescent CM cells were injected into the Duct of Cuvier or at 2 dpf, which led to dissemination through the blood circulation and outgrowth in the head and tail. In orthotopic tumour model, 100 (td)Tomato fluorescent CRMM1 or CRMM2 cells were injected RO in 2 dpf embryos using a Pneumatic Picopump and a manipulator (WPI). After injection, the embryos were incubated in a 34 °C incubator. Images were acquired at 1-, 2- and 4-days post injection (dpi) with a Leica M165 FC stereo fluorescence microscope. Tumor growth was quantified by calculating the total fluorescence intensity and area with the ZF4 pixel counting program (Leiden). Each experiment was performed at least 3 times with a group size of >30 embryos.
(§3) Fluorescent CRMM1 and CRMM2 cells were injected at 2 dpf into the Duct of Cuvier (ectopic model) and behind the eye (orthotopic model) and TLD1433 was delivered by WA, IV and RO administration with or without a light treatment as described in 4.8. For the WA administration, the 4.6 nM TLD1433 solution was added to the tumour cells injected zebrafish at 2.5, 3.5, 4.5, 5.5 dpf and maintained for 12 h. At 3, 4, 5, 6 dpf, the fish water was refreshed, and after 1 h, embryos were exposed to green light for 90 min (21 mW/cm^2, 114 J/cm^2, 520 nm). For the IV and RO administration, 1 nL of 2.3 mM TLD1433 solution was injected via the dorsal vein or the RO site at 3, 4, 5, 6 dpf. After 1 h interval, the embryos were exposed to green light for 90 min (21 mW/cm^2, 114 J/cm^2, 520 nm). After treatment, the embryos images were acquired with a Leica M165 FC stereo fluorescence microscope. Tumor growth was quantified by calculating the total fluorescence intensity and area with the ZF4 pixel counting program (Leiden). Each experiment was performed at least 3 times with a group size of >30 embryos.

[2] = test system: CRMM2 cells injected behind the eye (RO) of zebrafish embryos; test: Zebrafish orthotopic CM tumour model, CRMM2; type: in vivo, Zebrafish (Danio rerio); settings: for PI (Fluorescence Intensity) / PI (Tumour Area) / Relative Tumour Burden as Measured by Fluorescence Intensity / Tumour Area: CRMM2, Orthotopic Model; for PI (Fluorescence Intensity) / PI (Tumour Area): 0 vs 114 J.cm^−2
Method: as §1, §2, §3

[3] = Intravenous (1 nL of 2.3 mM), Light Dose 0 J.cm^−2, vs control dark group (100%)
[4] = Intravenous (1 nL of 2.3 mM), Light Dose 114 J.cm^−2, vs control dark group (100%)
[5] = Retro orbital (1 nL of 2.3 mM), Light dose 0 J.cm^−2, vs control dark group (100%)
[6] = Retro orbital (1 nL of 2.3 mM), Light dose 114 J.cm^−2, vs control dark group (100%)
[7] = Retro-orbital (1 nL of 2.3 mM), Light Dose 0 J.cm^−2, vs control dark group (100%)
[8] = Retro-orbital (1 nL of 2.3 mM), Light Dose 114 J.cm^−2, vs control dark group (100%)
[9] = Water (4.6 nM), Light dose 0 J.cm^−2, vs control dark group (100%)
[10] = Water (4.6 nM), Light dose 114 J.cm^−2, vs control dark group (100%)
[11] = CRMM2, ectopic model, IV 2.3 mM, light 114 J.cm^−2
[12] = CRMM2, ectopic model, RO 2.3 mM, green light 114 J.cm^−2
[13] = CRMM2, orthotopic model, RO 2.3 mM, green light 114 J.cm^−2

Cc1ccnc(-c2cc(C)ccn2)c1.Cc1ccnc(-c2cc(C)ccn2)c1.[Cl-].[Cl-].[Ru+2].c1csc(-c2ccc(-c3ccc(-c4nc5c6cccnc6c6ncccc6c5[nH]4)s3)s2)c1 [TLD1433]
PI (Fluorescence Intensity) ([1]; Intravenous (1 nL of 2.3 mM)): 1.4
PI (Tumour Area) ([1]; Intravenous (1 nL of 2.3 mM)): 2.0
Relative Tumour Burden as Measured by Fluorescence Intensity [1, 3]: 97%
Tumour Area [1, 3]: 99%
Relative Tumour Burden as Measured by Fluorescence Intensity [1, 4]: 69%
Tumour Area [1, 4]: 50%
PI (Tumour Area) ([1]; Retro orbital (1 nL of 2.3 mM)): 2.0
Tumour Area [1, 5]: 94%
Tumour Area [1, 6]: 48%
PI (Fluorescence Intensity) ([1]; Retro-orbital (1 nL of 2.3 mM)): 1.6
Relative Tumour Burden as Measured by Fluorescence Intensity [1, 7]: 93%
Relative Tumour Burden as Measured by Fluorescence Intensity [1, 8]: 60%
PI (Fluorescence Intensity) ([1]; Water (4.6 nM)): 0.93
PI (Tumour Area) ([1]; Water (4.6 nM)): 0.90
Relative Tumour Burden as Measured by Fluorescence Intensity [1, 9]: 90%
Tumour Area [1, 9]: 92%
Relative Tumour Burden as Measured by Fluorescence Intensity [1, 10]: 96%
Tumour Area [1, 10]: 102%
inhibition of tumour area [1, 11]: 50%
inhibition of tumour fluorescence intensity [1, 11]: 31%
diminished fluorescence intensity [1, 12]: 40%
diminished tumour area [1, 12]: 52%
effect on tumour burden (in words) ([1]; CRMM2, ectopic model, WA at the MTD (4.6 nM), light 114 J.cm^−2): did not inhibit tumour burden
PI (Fluorescence Intensity) ([2]; Intravenous (1 nL of 2.3 mM)): 1.0
PI (Tumour Area) ([2]; Intravenous (1 nL of 2.3 mM)): 1.1
Relative Tumour Burden as Measured by Fluorescence Intensity [2, 3]: 98%
Tumour Area [2, 3]: 97%
Relative Tumour Burden as Measured by Fluorescence Intensity [2, 4]: 95%
Tumour Area [2, 4]: 93%
PI (Tumour Area) ([2]; Retro orbital (1 nL of 2.3 mM)): 3.4
Tumour Area [2, 5]: 99%
Tumour Area [2, 6]: 29%
PI (Fluorescence Intensity) ([2]; Retro-orbital (1 nL of 2.3 mM)): 2.2
Relative Tumour Burden as Measured by Fluorescence Intensity [2, 7]: 100%
Relative Tumour Burden as Measured by Fluorescence Intensity [2, 8]: 45%
PI (Fluorescence Intensity) ([2]; Water (4.6 nM)): 0.92
PI (Tumour Area) ([2]; Water (4.6 nM)): 1.1
Relative Tumour Burden as Measured by Fluorescence Intensity [2, 9]: 96%
Tumour Area [2, 9]: 104%
Relative Tumour Burden as Measured by Fluorescence Intensity [2, 10]: 104%
Tumour Area [2, 10]: 95%
diminished fluorescence intensity [2, 13]: 55%
diminished tumour area [2, 13]: 71%
effect on tumour burden (in words) ([2]; CRMM2, orthotopic model, WA at the MTD (4.6 nM), light 114 J.cm^−2): did not inhibit tumour burden
